This note sets out measurements from US9493416B2, “N-methyl-4-benzylcarbamidopyridinium chloride and a process for its preparation” (Farmak International Holding GmbH, priority 2012, dated 2016).

The structures appear in SMILES notation.

A short description of this data set: Active ingredient release (dissolution) profile from solid gelatine capsules in pharmacopeial buffer solutions. The format is physicochemical. The settings on record: for released faster than FAV00A-Io by: 370.6 mg capsules vs FAV00A-Io 500 mg capsules. The procedure: Results of comparative studies of active ingredient release profiles from a drug formulated as solid gelatine capsules using two salts of N-methyl-4-benzylcarbamidopyridine, namely the chloride and iodide salts labelled “FAV00A-Cl” and “FAV00A-Io” hereinafter.
In order to assess the FAV00A-Cl substance release rate from a finished medicinal product, studies of active ingredient release profiles were carried out for FAV00A-Cl 370.6 mg capsules, in 3 reference pharmacopeial buffer solutions with pH 1.2, 4.5, 6.8 and typical measurement conditions (1000 ml of 0.1M HCl; 100 rpm (basket); 1000 ml of acetate buffer solution pH 4.5; 100 rpm (basket); 1000 ml of phosphate buffer solution pH 6.8; 100 rpm (basket), respectively). Study results were compared against FAV00A-Io 500 mg capsules (with consideration of molecular weights of FAV00A-Cl and FAV00A-Io substances: the dosage of FAV00A-Cl substance 370.6 mg is equivalent to the dosage of FAV00A-Io substance 500 mg). The iodide salt FAV00A-Io used in the study was the α-crystalline form of amizon as described in applicant's co-pending patent applications WO 2011/158058 and WO 2011/157743.

With `C[n+]1ccc(C(=O)NCc2ccccc2)cc1.[Cl-]` [FAV00A-Cl, N-methyl-4-benzylcarbamidopyridinium chloride], the “released faster than FAV00A-Io by” value (0.1M HCl, 5-th minute) is given as 40%; the “released faster than FAV00A-Io by” value (0.1M HCl, 10-th minute) came to 20%; the “released faster than FAV00A-Io by” value (buffer solution with pH 4.5, 5-th minute) was found to be 25%; the “released faster than FAV00A-Io by” value (buffer solution with pH 4.5, 10-th minute) is recorded as 10%; the “released faster than FAV00A-Io by” value (buffer solution with pH 6.8, 5-th minute) amounted to 25%; the “released faster than FAV00A-Io by” value (buffer solution with pH 6.8, 10-th minute) was determined as 15%. Moreover, the “Dissolution classification of the product” value (based on release in 15 min of more than 85%) is “rapidly dissolving”. In addition, the “Release of substance from finished medicinal product in 15 min” value (in 15 min, 3 reference pharmacopoeial buffer solutions (pH 1.2, 4.5, 6.8)) was “more than 85%”.
